From patent US10272056B2, “Treatment for mitochondrial diseases” (The George Washington University a Congressionally …, priority 2015, dated 2019)

Experiments:
Format in all cases: cell-based
[1] = system: histones H2B, H3 and H4 proteins; assay: Acetylation of specific lysine residues of histones (immunocytochemistry); conditions: NaBt 5 mM, three days, PC12-ND6 cells
Method: PC12-ND 6 cells were treated with NaBt (5 mM) for three days before performing immunocytochemistry to evaluate the acetylation status of lysine residues of key histone proteins, as listed on top of each confocal micrograph. Left panels illustrate representative pictures of PC12-ND6 cells grown in the absence (control) or presence of NaBt for three days and labeled with specific acetylated Lys antibody (green) and DAPI as a nuclear label (blue). Scale bar represents 10 μm. The right panels show the graph for each quantification of acetylated lysine residue for key histone proteins. Results are expressed as relative fluorescence intensity±S.D. (1000 cells per condition; n=3; * p=0.0001).
Sodium butyrate induces epigenetic reprogramming by acetylating key amino acid residues of histone proteins H2B, H3 and H4. Histone acetylation, which is mediated by two groups of enzymes, histone acetyltransferases (HATs) and histone deacetylases (HDAC), promote gene expression responsible to induce differentiation of neural stem cells and neural progenitor cells. Epigenetic regulators, such as the NaBt and its derivatives, inhibit the activity of HDAC enzymes, thereby favoring HAT activity and inducing an open chromatin structure to allow easy access to the DNA via histone acetylation. Thus, which lysine residues of key histone proteins were targeted by NaBt ws investigated. The lysine residue K27 of the histone H3 protein was targeted, as it is known to be acetylated to favor expression of lineage-specific genes associated with neural differentiation of progenitors and stem cells. Immunocytochemistry results confirmed that NaBt induced a 210% increased acetylation of the K27 residue of H3 (FIG. 5). Analysis was extended to additional acetylation marks, such as the lysine residue K9 of the histone H3, the K12 residue of histone H4 […] are important indicators of active enhancer elements. […] Thus, NaBt induces a specific epigenetic reprogramming of neural-like progenitor PC12-ND6 cell by inducing a series of acetylation marks to confer transcriptional competence.

[2] = system: E17.5 hippocampal neurons; assay: Mitochondrial mass in neurons (mito-GFP, quantitative immunohistochemistry COXVα/tubulin); conditions: NaBt-treated E17.5 neurons; control 7%
Excerpt: FIG. 7A-7F show images from microscopy and graphs showing NaBt increases mitochondrial mass. (A) Live cell confocal microscopy of E17.5 hippocampal neurons; high magnification in inset; scale bar=5 (B) Quantitative analysis of the mitochondrial biomass in E17.5 neurons using an anti-CoxVα antibody; *p<0.001. (C) Live cell confocal microscopy of PC12-ND6 cells; high magnification in inset; scale bar=5 (D) Flow cytometric analysis of mitochondrial mass; *p<0.001. (E) Confocal microscopy of E17.5 brains from E12.5 pregnant dams treated with PBS (sham) or NaBt; scale bar=20 (F) Quantitative analysis of mitochondrial mass; *p<0.001.
Experimental approaches. Five distinct molecular tools were used to investigate mitochondrial biogenesis: 1) the mitochondrial-specific dyes, MitoTracker® Green (MTG) and MitoTracker® Red (MTR); 2) the mito-GFP or mito-dsRed vector to fluorescently label mitochondria; 3) antibodies against mtDNA, COXVα, or SOD2; 4) the fluorescent PicoGreen® dye labeling mtDNA; and 5) quantitative PCR to determine mtDNA copy number.
The effect of NaBt was investigated in embryonic neuronal progenitor cells, E17.5 hippocampal neurons, which were transfected with the mito-GFP vector and then exposed to various concentrations of NaBt. […] Therefore, all subsequent treatment of E17.5 hippocampal neurons with NaBt was performed in the presence of 2 mM. […]

NRF-1 = assay: Quantitative immunoblot analysis of NRF-1; conditions: NaBt treatment, PC12-ND6
Excerpt: FIG. 11A-11D are images from microscopy and graphs showing NaBt promotes mtDNA replication via the NRF-1/Tfam axis. (A) Confocal analysis of mtDNA foci; scale bar=5 (B) Quantitative analysis of mtDNA copy number by PCR; *p<0.001. (C, D) Quantitative immunoblot analysis of NRF-1 and Tfam; *p<0.001.
NaBt enhances mtDNA replication via the PGC1α-mediated NRF-1/Tfam axis. It was investigated whether NaBt enhanced mtDNA replication using the PicoGreen® dye to label mtDNA. PC12-ND6 cells were transfected with the mito-dsRed vector prior to NaBt treatment followed by PicoGreen® staining. […] To corroborate enhanced mitochondrial biogenesis, two key target genes of PGC1α were examined, the NRF-1 transcription factor and its direct target gene Tfam, both essential for mitochondrial biogenesis. […] The findings confirm the NaBt-mediated modulation of mitochondrial biogenesis and mtDNA replication in neuronal cells.

[3] = system: E17.5 hippocampal neurons; assay: Neuronal stage 3 frequency with chloramphenicol and NaBt
Excerpt: FIG. 16A-16I are images from microscopy and a graph showing that Pre-treatment of E17.5 hippocampal neurons with NaBt protects against chloramphenicol-induced loss of neuronal differentiation. (A-D) Confocal micrographs of E17.5 hippocampal neurons exposed to different concentrations of chloramphenicol at 2DIV and labeled with anti tubulin antibody (red) and nuclear counterstain DAPI (blue) at 3DIV. Scale bar represents 10 μm. (E-H) Confocal micrographs of E17.5 hippocampal neurons treated with NaBt (2 mM) at 1DIV prior to exposure to different concentrations of chloramphenicol at 2DIV and labeled with anti tubulin antibody (red) and nuclear counterstain DAPI (blue) at 3DIV. Scale bar represents 10 μm. (I) Graph of E17.5 β-III^+ hippocampal neurons at the neuronal stage 3. Mean±S.D. (n=250 cells; compared to untreated control *p=0.0001; compared to the corresponding non-NaBt treated sample **p=0.0001; compared to non-NaBt treated cells exposed to Cm at 30 μM‡p=0.007).
The consequences of chloramphenicol exposure on untreated or NaBt-treated E17.5 hippocampal neurons was examined. At 1DIV, dissociated E17.5 hippocampal neurons were switched to differentiation medium in the absence or presence of NaBt (2 mM) for 24 hours before being treated with increasing concentrations of chloramphenicol (0, 15, 30, and 60 μM) for 24 hours. At 3DIV, their phenotypic differentiation was examined by immunocytochemistry using an antibody against the pan-neuronal marker β-III tubulin and quantified the percent of neurons having reached the developmental stage 3 for each experimental condition. As expected, only half of untreated neurons reached stage 3 in the absence of NaBt, while more than 90% of NaBt-treated neurons achieved such degree of differentiation, thereby forming an elaborate neuritic network (FIGS. 16A, E, and I).

## CCCC(=O)[O-].[Na+] [NaBt, sodium butyrate]
[1]
  acetylation of histone H2B: hyperacetylated
  increased acetylation of H3K9: 250%
  increased acetylation of H4K12: 124%
  increased acetylation of the K27 residue of H3: 210%
[2]
  mitochondria as percent of the cell volume: 18%
NRF-1
  NRF-1 expression: increased on day 1
[3]; NaBt 2 mM prior to chloramphenicol up to 60 μM
  frequency of advanced neuronal stage with NaBt pre-treatment: sustained the frequency of advanced neuronal stage
[3]; NaBt 2 mM, no chloramphenicol, 3DIV
  percent of neurons reaching stage 3: more than 90%
